Laboratory results reported in ChEMBL document CHEMBL3399973, “Synthesis and biological evaluation of isoxazoline derivatives as potent M₁ muscarinic acetylcholine receptor agonists” (Bioorg Med Chem Lett, 2015).
pEC50: −log10 of the molar value.

Experiments:
[1] = target: T1, Muscarinic acetylcholine receptor M1 (Homo sapiens) (UniProt P11229); details: HEK293, at 10 µM
T1 sequence (whole entry): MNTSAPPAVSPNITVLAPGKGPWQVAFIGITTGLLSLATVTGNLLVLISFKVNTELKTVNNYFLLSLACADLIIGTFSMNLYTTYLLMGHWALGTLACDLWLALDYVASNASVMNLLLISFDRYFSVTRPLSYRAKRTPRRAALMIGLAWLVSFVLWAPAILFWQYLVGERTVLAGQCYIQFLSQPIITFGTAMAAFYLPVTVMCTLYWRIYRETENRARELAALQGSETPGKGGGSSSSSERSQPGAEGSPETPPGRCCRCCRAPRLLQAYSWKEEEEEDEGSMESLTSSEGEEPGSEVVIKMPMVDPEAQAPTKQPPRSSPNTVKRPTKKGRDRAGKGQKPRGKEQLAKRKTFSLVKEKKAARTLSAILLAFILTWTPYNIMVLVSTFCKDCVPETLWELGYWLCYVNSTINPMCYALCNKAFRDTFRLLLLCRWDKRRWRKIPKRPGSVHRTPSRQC

[2] = target: T1, Muscarinic acetylcholine receptor M1 (Homo sapiens); details: HEK293, at 10 µM; remark: listed apart in the source
[3] = target: T2, Muscarinic acetylcholine receptor M1 (Homo sapiens, UniProt P11229)
T2 sequence (P11229 whole entry): T1 sequence (whole entry)

[4] = target: T1, Muscarinic acetylcholine receptor M1 (Homo sapiens); assay: Agonist activity at human m1 muscarinic acetylcholine receptor expressed in HEK293 cells assessed as relative ratio of phosphorylated ERK1/2 to ERK1/2 at 1 uM after 2 mins by Western blotting analysis relative to 100 uM acetylcholine response; assay type: cell-based
[5] = target: T1, Muscarinic acetylcholine receptor M1 (Homo sapiens); assay: Agonist activity at human m1 muscarinic acetylcholine receptor expressed in HEK293 cells assessed as activation of ERK1/2 phosphorylation after 2 mins by Western blotting analysis; assay type: cell-based
SH-SY5Y [6] = assay: Induction of sAPPalpha release in human SH-SY5Y cells assessed as fold changed at 1 uM after 1 hr by immunoblotting analysis relative to 100 uM acetylcholine response; assay type: functional
SH-SY5Y [7] = assay: Induction of sAPPalpha release in human SH-SY5Y cells assessed as fold changed at 0.01 uM after 1 hr by immunoblotting analysis relative to 100 uM acetylcholine response; assay type: functional
SH-SY5Y [8] = assay: Induction of sAPPalpha release in human SH-SY5Y cells after 1 hr by immunoblotting analysis; assay type: functional, cell-based
SH-SY5Y [9] = assay: Induction of sAPPalpha release in human SH-SY5Y cells assessed as fold changed at 0.1 uM after 1 hr by immunoblotting analysis relative to 100 uM acetylcholine response; assay type: functional
[10] = target: T1, Muscarinic acetylcholine receptor M1 (Homo sapiens); assay: Agonist activity at human m1 muscarinic acetylcholine receptor expressed in HEK293 cells assessed as relative ratio of phosphorylated ERK1/2 to ERK1/2 at 10 uM after 2 mins by Western blotting analysis relative to 100 uM acetylcholine response; assay type: cell-based
[11] = target: T1, Muscarinic acetylcholine receptor M1 (Homo sapiens); assay: Agonist activity at human m1 muscarinic acetylcholine receptor expressed in HEK293 cells assessed as relative ratio of phosphorylated ERK1/2 to ERK1/2 at 100 uM after 2 mins by Western blotting analysis relative to 100 uM acetylcholine response; assay type: cell-based

| SMILES | Efficacy [1] [%] | inhibition [2] [%] | pEC50 [3] | also measured |
| --- | --- | --- | --- | --- |
| O=C1CCCN1C1CC(CCN2CCCCC2)=NO1 (stereo not drawn) | 2.2 | 20.7 | – | – |
| CN1CCC=C(C2=NOC(Sc3ccccc3)C2)C1 (stereo not drawn) | 2.3 | 49.4 | – | – |
| CN1CCC=C(C2=NOC(C#N)C2)C1 (stereo not drawn) | 58.8 | – | 5.12 | – |
| CN1CCCC(C2=NOC(N3CCCC3=O)C2)C1 (stereo not drawn) | 2.2 | 20.7 | – | – |
| O=C1CCCN1C1CC(CN2CCCC2)=NO1 (stereo not drawn) | 2.2 | 20.7 | – | – |
| O=C1CCCN1C1CC(CCN2CCCC2)=NO1 (stereo not drawn) | 2.2 | 20.7 | – | – |
| CN1CCC=C(C2=NOC(O)C2)C1 (stereo not drawn) | 36.9 | – | 4.76 | – |
| CCOC1CC(C2=CCCN(C)C2)=NO1 (stereo not drawn) | 2.4 | 34 | – | – |
| CN1CCC=C(C2=NOC(N3CCCC3=O)C2)C1 (stereo not drawn) | 99.5 | – | 7.51 | Ratio [4]: 1.3; Activity [5]: Dose-dependent effect; fold change (FC) (SH-SY5Y [6]): 3.4; fold change (FC) (SH-SY5Y [7]): 1.5; Activity (SH-SY5Y [8]): Dose-dependent effect; fold change (FC) (SH-SY5Y [9]): 2.5; Ratio [10]: 1.7; Ratio [11]: 1.8 |
| CN1CCC=C(c2ccon2)C1 | 95.8 | – | 6.11 | – |
| CSCC1CC(C2=CCCN(C)C2)=NO1 (stereo not drawn) | 61.3 | – | 5.25 | – |
| O=C1CCCN1C1CC(CN2CCCCC2)=NO1 (stereo not drawn) | 2.2 | 20.7 | – | – |
| CO/N=C/C1=CCCN(C)C1 [MILAMELINE] | 83 | – | 7.68 | – |
| O=C1CCCN1CC#CCN1CCCC1 [OXOTREMORINE] | 108 | – | 8.80 | – |
| CN1CCC=C(C2=NOC(CO)C2)C1 (stereo not drawn) | 1.7 | 12.3 | – | – |
